Data on eleven compounds can be found in patent publication US10640545B2 (THE GOVERNORS OF THE UNIVERSITY OF ALBERTA, priority 2017, dated 2020).

*1 amine or outer side, *2 acyl side, *3 side chain or, on linkers, in order; H or OH if unused. Where a SMILES comes first, the peptide text is derived from it. [ ]: non-standard residue; d: D form. The star is where a group is joined. Phe(4-Br) = N[C@@H](Cc1ccc(Br)cc1)C(=O)O; azaLeu = CC(C)CN(N[*:1])C(=O)[*:2]; Palmitoyl = CCCCCCCCCCCCCCCC(=O)*; NMeL = CN[C@@H](CC(C)C)C(=O)O; pGlu = O=C1CC[C@@H](C(=O)O)N1; Nle = CCCC[C@H](N)C(=O)O; Aib = CC(C)(N)C(=O)O

In data set [1] the target is T1, wild-type rat apelin receptor (Rattus norvegicus, UniProt Q9JHG3).
T1 construct: expressed in transfected cells
T1 sequence (Q9JHG3 1-377): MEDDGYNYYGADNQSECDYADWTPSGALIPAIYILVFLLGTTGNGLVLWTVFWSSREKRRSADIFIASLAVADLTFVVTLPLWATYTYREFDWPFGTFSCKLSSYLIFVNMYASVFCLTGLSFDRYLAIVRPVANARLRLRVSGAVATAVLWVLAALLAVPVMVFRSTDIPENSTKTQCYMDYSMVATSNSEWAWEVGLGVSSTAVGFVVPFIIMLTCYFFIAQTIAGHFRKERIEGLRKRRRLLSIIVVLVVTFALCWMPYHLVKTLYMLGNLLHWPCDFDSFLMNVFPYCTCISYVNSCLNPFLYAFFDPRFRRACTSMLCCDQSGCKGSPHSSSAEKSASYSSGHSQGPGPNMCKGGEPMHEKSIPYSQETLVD
Nature of the data set: Radioligand binding, displacement of [125I]-pyr-1-apelin-13 on CHO cell membranes. On the procedure: This experiment evaluated the ability of peptides of the present embodiments to bind to the wild-type rat apelin receptor, in order to examine the impact of synthetic modification within the critical RPRL motif of the apelin peptides.
Membrane preparations from CHO cells stably expressing the wild-type rat apelin receptor-EGFP were prepared as previously described (Gerbier et al., New Structural Insights Into The Apelin Receptor: Identification Of Key Residues For Apelin binding; FASEB J. 2015, 29, 314-322; Iturrioz et. al., Development Of Original Metabolically-Stable Apelin-17 Peptides With Diuretic And Cardiovascular Effects; FASEB J. 2017, 31, 687-700.) Crude membrane preparations (1 μg total mass of membranes/assay) were incubated for 3 h at 20° C. with 0.2 nM [^125I]-pyr-1-apelin-13 (monoiodinated on Lys^8 with Bolton-Hunter reagent, Perkin Elmer, Wellesley, Mass., USA) in binding buffer (50 mM HEPES, 5 mM MgCl2 1149 pH 7.5, BSA 1%) alone or in presence of the different compounds at various concentrations. The reaction was stopped by adding 4 mL of cold binding buffer, filtered on Whatman GF/C filters and washed with 5 mL of cold binding buffer. Radioactivity was then counted using a Wizard 1470 Wallac gamma counter (Perkin Elmer, Turku, Finland). Binding experiment data were analyzed with Graph Pad Prism.

In the next data set the test system is isolated rat hearts. Briefly: Langendorff isolated heart, ischemia-reperfusion injury. The following applies: ex vivo heart, 30 min ischemia, peptide at start of reperfusion for 10 min at 1 pM. On the procedure: The ex vivo heart was assessed for a variety of parameters (heart rate (HR); left ventricle developed pressure (LVDP); maximum derivative of change in systolic pressure over time (max dP/dt); minimum derivative of change in diastolic pressure over time (min dP/dt); and rate-pressure product (RPP)) indicative of general heart function and performance (FIG. 11).
Langendorff heart perfusion and ischemia-reperfusion injury were prepared and cardiac function was measured. Mice were heparinized and anaesthetized with 1.5-2% isoflurane inhalation. The heart was excised, mounted on a Langendorff system, and perfused at a consistent pressure of 80 mmHg with modified Krebs-Henseleit solution (116 mM NaCl, 3.2 mM KCl, 2.0 mM CaCl2), 1.2 mM MgSO4, 25 mM NaHCO3, 1.2 mM KH2PO4, 11 mM glucose, 0.5 mM EDTA and 2 mM pyruvate), which was kept at 37° C. and continuously oxygenated with 95% O2 and 5% CO2 which maintained the perfusion buffer at pH 7.4. After stabilization and 10 min baseline recording, global ischemia was induced for 30 min followed by 40 min of reperfusion. Apelin 17 (2) or apelin peptides (11, 17, 18, or 19) were given at the start of reperfusion for 10 min at a concentration of 1 pM. Left ventricular functions were obtained continuously by PowerLab system (ADInstruments, Australia). Data was reported as mean value of every 5 min. Left ventricular functions were reported as: Left Ventricular Developed Pressure (LVDP); Heart rate (HR); maximum derivative of change in systolic pressure over time (max dP/dt); minimum derivative of change in diastolic pressure over time (min dP/dt); and Rate Pressure Product (RPP).

A short description of another data set: in vitro. The following applies: human, plasma.
For the next data set, the target named is neprilysin (NEP) (Homo sapiens, UniProt P08473). Briefly: in vitro. The following applies: human, pH 7.5. How it is done:
This experiment compared the in vitro NEP stability of the Arg/Leu peptides of the embodiments to native apelin isoforms and their A2 substituted counterparts. Peptides were incubated with recombinant human NEP (rhNEP, Sino Biological) at 37° C. for up to 72 h, and the extent of degradation was analyzed via LC-MS because of the overlapping elution patterns of peptide fragments. […] (McKinnie, S. M. K., et al. ChemBioChem: 17, 1495-1498 (2016)). […] (Dion, N., et al., Biochem. J.: 311, 623-627 (1995); Bateman Jr., R. C., et al., J. Biol. Chem.: 264, 6151-6157 (1989); McMurray, J. J. et al., J. Med.: 371, 993-1004 (2014)).
Apelin peptides were dissolved in Milli-Q water (1 mM). Recombinant human neprilysin (rhNEP, Sino Biological) was reconstituted in Tris buffer (100 mM Tris, 100 mM NaCl, 10 μM ZnCl2, pH 7.5). To initiate the assay, rhNEP was diluted in Tris buffer (3.1 nM final concentration), and preincubated at 37° C. for 10 minutes prior to the addition of 5 μL of apelin peptide (1 mM) and 1.5 μL internal standard dansyl-Tyr-Val-Gly-OH (1 mM). Aliquots (10 μL) were removed at 0, 1, 4, 24, and 72 h, quenched with 0.1 M EDTA (10 μL), diluted to 100 μL with Milli-Q water and analyzed by LC-MS. Assays were performed in triplicate (n=3) for each time point. Integrated peak areas of the parent apelin peptide and internal standard derived from LC-MS analyses, were extracted using Mass Hunter software (version B.04.00) and compared in positive extracted ion count modus (+EIC, extracted-ion chromatogram). […] (apelin:dansyl-YVG), to the same ratio at the different assay time points. The decrease in apelin:dansyl-YVG ratio was converted to a percentage of cleaved peptide over time.
The extent of degradation was analyzed via LC-MS because of the overlapping elution patterns of peptide fragments (NEP).
Native apelin-17 (2) and apelin peptides 5, 54, 56, 57, 58 and 59 were dissolved in Milli-Q water (1 mM). Recombinant human neprilysin (rhNEP, Sino Biological) was reconstituted in Tris buffer (100 mM Tris, 100 mM NaCl, 10 μM ZnCl2, pH 7.5). To initiate the assay, rhNEP was diluted in Tris buffer (3.1 nM final concentration) and preincubated at 37° C. for 10 min prior to the addition of 5 μL of apelin peptide (1 mM) and 1.5 μL of internal standard dansyl-Tyr-Val-Gly-OH (1 mM). Aliquots (10 μL) were removed at 0, 1, 4, 24, and 72 h, quenched with 0.1 M EDTA (10 μL), diluted to 100 μL with Milli-Q water, and analyzed by LC-MS. Assays were performed in triplicate (n=3) for each time point. Integrated peak areas of the parent apelin peptide and internal standard derived from LC-MS analyses were extracted using Mass Hunter software (version B.04.00) and compared in positive extracted ion count modus (+EIC). The extent of proteolysis was determined by comparing the initial (0 h) ratio of the integrated extracted ions of the parent apelin peptide to the internal dansyl-YVG standard (apelin/dansyl-YVG) to the same ratio at the different assay time points. The decrease in apelin/dansyl-YVG ratio was converted to a percentage of cleaved peptide over time.

For data set [2], the target named is Human plasma kallikrein KLKB1 (Homo sapiens, UniProt P03952). Nature of the data set: Plasma kallikrein KLKB1 qualitative cleavage assay (MALDI-TOF). How it is done:
Native apelin-17 (2) and apelin peptides 5, 56, 57, 58 and 59 were dissolved in Milli-Q water (1 mM). Human plasma kallikrein KLKB1 were each reconstituted in Tris buffer (100 mM TrisHCl, 10 mM CaCl2), 150 mM NaCl) and diluted with Tris buffer (50 mM TrisHCl, 250 mM NaCl) to give a KLKB1 concentration of […]. The KLKB1 enzyme was then preincubated at 37° C. for 10 minutes prior to the addition of 5 μL of apelin peptide (1 mM). Aliquots (1 μL) were taken at 1, 2, 4, 6, 12, 24, 36, and 48 hours and analyzed with MALDI-TOF mass spectrometry to qualitatively determine the time point at which degradation products could be observed (Table 4).

Data set [3] has as its target T2, KLKB1 (plasma kallikrein) (Homo sapiens, UniProt P03952).
T2 construct: purchased Novoprotein
Briefly: In vitro KLKB1 stability (half-life). Format: in vitro ADME. The following applies: human.

The test system of data set [4] is recombinant human neprilysin (rhNEP, Sino Biological). Nature of the data set: rhNEP diluted in Tris buffer (100 mM Tris, 100 mM NaCl, 10 μM ZnCl2, pH 7.5), 3.1 nM final concentration. The following applies: 37° C., up to 72 h.

neprilysin (NEP), sequence (P08473 whole entry, the tested form may be a part, canonical isoform): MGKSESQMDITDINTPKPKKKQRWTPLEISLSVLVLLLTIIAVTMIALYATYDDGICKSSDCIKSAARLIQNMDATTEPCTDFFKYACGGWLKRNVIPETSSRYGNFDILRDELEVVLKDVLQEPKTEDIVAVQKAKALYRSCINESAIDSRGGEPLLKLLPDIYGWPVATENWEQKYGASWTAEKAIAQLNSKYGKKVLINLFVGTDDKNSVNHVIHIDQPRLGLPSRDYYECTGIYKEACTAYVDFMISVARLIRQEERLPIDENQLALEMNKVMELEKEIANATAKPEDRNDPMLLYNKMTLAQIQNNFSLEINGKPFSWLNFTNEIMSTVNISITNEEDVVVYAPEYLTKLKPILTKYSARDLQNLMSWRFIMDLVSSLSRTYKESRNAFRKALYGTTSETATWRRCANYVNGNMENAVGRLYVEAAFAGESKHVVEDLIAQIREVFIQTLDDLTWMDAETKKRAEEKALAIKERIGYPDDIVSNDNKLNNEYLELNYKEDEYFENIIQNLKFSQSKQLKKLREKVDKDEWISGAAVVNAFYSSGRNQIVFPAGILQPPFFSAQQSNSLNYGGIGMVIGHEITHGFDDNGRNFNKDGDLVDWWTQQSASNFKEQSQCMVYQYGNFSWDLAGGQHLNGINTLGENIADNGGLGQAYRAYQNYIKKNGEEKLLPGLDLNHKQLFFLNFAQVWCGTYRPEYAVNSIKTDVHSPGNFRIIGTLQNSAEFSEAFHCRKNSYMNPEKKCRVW
Human plasma kallikrein KLKB1, sequence (P03952 20-638): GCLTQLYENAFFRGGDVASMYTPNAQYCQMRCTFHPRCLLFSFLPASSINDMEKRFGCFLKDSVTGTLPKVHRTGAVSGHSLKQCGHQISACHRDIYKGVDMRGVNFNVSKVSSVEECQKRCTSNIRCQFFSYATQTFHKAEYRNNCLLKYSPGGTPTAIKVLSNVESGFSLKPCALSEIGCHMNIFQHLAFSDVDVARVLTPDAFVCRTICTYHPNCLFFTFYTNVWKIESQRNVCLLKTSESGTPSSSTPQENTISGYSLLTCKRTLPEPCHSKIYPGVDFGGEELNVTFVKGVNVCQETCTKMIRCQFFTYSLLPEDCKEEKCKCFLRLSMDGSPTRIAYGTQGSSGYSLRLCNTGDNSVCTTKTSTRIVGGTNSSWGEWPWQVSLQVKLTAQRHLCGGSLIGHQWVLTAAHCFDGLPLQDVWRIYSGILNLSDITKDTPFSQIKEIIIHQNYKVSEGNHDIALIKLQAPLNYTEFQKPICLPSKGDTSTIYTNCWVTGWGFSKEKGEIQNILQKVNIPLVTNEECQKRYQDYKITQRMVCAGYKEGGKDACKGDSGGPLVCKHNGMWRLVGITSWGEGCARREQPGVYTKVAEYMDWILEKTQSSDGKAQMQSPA
T2 sequence (P03952 20-638): as above

For the compound `CCCC[C@H](NC(=O)[C@@H]1CCCN1C(=O)CNC(=O)[C@H](CCCCN)NC(=O)[C@H](Cc1c[nH]cn1)NC(=O)[C@H](CO)NC(=O)N(CC(C)C)NC(=O)[C@H](CCCNC(=N)N)NC(=O)[C@@H]1CCCN1C(=O)[C@H](CCCNC(=N)N)NC(=O)[C@@H]1CCC(=O)N1)C(=O)NC(C)(C)C(=O)N[C@@H](Cc1ccc(Br)cc1)C(=O)O` [Peptide 18, pGlu-Arg-Pro-Arg-azaLeu-Ser-His-Lys-Gly-Pro-Nle-Aib-paraBrPhe] ([pGlu]RPR[azaLeu]SHKGP[Nle][Aib][Phe(4-Br)]-OH; C-terminus assumed), the inhibition constant (Ki) (usually a dissociation constant, usually derived from enzyme kinetics or from competition with a known ligand) in data set [1] (displacement of [125I]-pyr-1-apelin-13 (0.2 nM), CHO membranes, rat apelin receptor-EGFP, means ± SE, read-out: Affinity Ki) amounted to 130 ± 63 pM. In data set [1] (rat apelin receptor), the “receptor binding affinity (in words)” value is on record as “modest improvement in receptor binding”. Moreover, the “ability to rescue the heart from ischemic reperfusion injury” value in the data set with isolated rat hearts is on record as “behaved comparably to that of the negative saline control”. Besides, in “in vitro”, the amount remaining (usually what is left of the initial amount, in per cent) at 0.5 h, 80 µM worked out at 19 ± 5% and the share remaining at 1 h, 80 µM is 2 ± 1%.

Consider `CCCCCCCCCCCCCCCC(=O)N[C@@H](CCCCN)C(=O)N[C@@H](Cc1ccccc1)C(=O)N[C@@H](CCCNC(=N)N)C(=O)N[C@@H](CCCNC(=N)N)C(=O)N[C@@H](CCC(N)=O)C(=O)N[C@@H](CCCNC(=N)N)C(=O)N1CCC[C@H]1C(=O)N[C@@H](CCCNC(=N)N)C(=O)N[C@@H](CC(C)C)C(=O)N[C@@H](CO)C(=O)N[C@@H](Cc1cnc[nH]1)C(=O)N[C@@H](CCCCN)C(=O)NCC(=O)N1CCC[C@H]1C(=O)N[C@@H](CCCC)C(=O)NC(C)(C)C(=O)N[C@@H](Cc1ccc(Br)cc1)C(=O)O` [Peptide 56] (Palmitoyl-KFRRQRPRLSHKGP[Nle][Aib][Phe(4-Br)]-OH), for which the half-life (as a rule, the time needed for the level to fall by half in the phase considered) was 1.5 h on neprilysin (NEP) and 1 h in data set [3]. For the same compound, in data set [2], the “Degradation Onset Timepoint with KLKB1” value amounted to 1 h. `CCCCCCCCCCCCCCCC(=O)N[C@@H](CCCCN)C(=O)N[C@@H](Cc1ccccc1)C(=O)N[C@@H](CCCNC(=N)N)C(=O)N[C@@H](CCCNC(=N)N)C(=O)N[C@@H](CCC(N)=O)C(=O)N[C@@H](CCCNC(=N)N)C(=O)N1CCC[C@H]1C(=O)N[C@@H](CCCNC(=N)N)C(=O)N(C)[C@@H](CC(C)C)C(=O)N[C@@H](CO)C(=O)N[C@@H](Cc1cnc[nH]1)C(=O)N[C@@H](CCCCN)C(=O)NCC(=O)N1CCC[C@H]1C(=O)N[C@@H](CCCC)C(=O)NC(C)(C)C(=O)N[C@@H](Cc1ccc(Br)cc1)C(=O)O` [Peptide 58] (Palmitoyl-KFRRQRPR[NMeL]SHKGP[Nle][Aib][Phe(4-Br)]-OH): the values for the half-life (at neprilysin (NEP); in data set [3]) were above 30 h and 2.1 h, respectively. In data set [2], the “Degradation Onset Timepoint with KLKB1” value came out at 2 h.

“Lys-Phe-Arg-Arg-Gln-Arg-Pro-Arg-azaLeu-Ser-His-Lys-Gly-Pro-Nle-Aib-paraBrPhe”: the cleaved bond result in data set [4] is “Nle15-Aib16, minor”. On the same count and under the same terms, next, “Lys-Phe-Arg-Arg-Gln-Arg-Pro-Arg-αMeLeu-Ser-His-Lys-Gly-Pro-Nle-Aib-paraBrPhe”: “Nle15-Aib16, minor”; “Lys-Phe-Arg-Arg-Gln-Arg-Pro-αMeArg-Leu-Ser-His-Lys-Gly-Pro-Nle-Aib-paraBrPhe”: “Nle15-Aib16, minor”.

Turning to “pGlu-Arg-Pro-Arg-NMeLeu-Ser-His-Lys-Gly-Pro-Nle-Aib-paraBrPhe”, the cleaved bond result in data set [4] is listed as “Nle11-Aib12, minor”. On the same count and under the same terms, the result for “pGlu-Arg-Pro-Arg-azaLeu-Ser-His-Lys-Gly-Pro-Nle-Aib-paraBrPhe” reads “Nle11-Aib12, minor”; that for “pGlu-Arg-Pro-Arg-αMeLeu-Ser-His-Lys-Gly-Pro-Nle-Aib-paraBrPhe”, “Nle11-Aib12, minor”; that for “pGlu-Arg-Pro-azaArg-Leu-Ser-His-Lys-Gly-Pro-Nle-Aib-paraBrPhe”, “Nle11-Aib12, minor”.

For the compound “pGlu-Arg-Pro-αMeArg-Leu-Ser-His-Lys-Gly-Pro-Nle-Aib-paraBrPhe”, in data set [4], the cleaved bond entry is recorded as “Nle11-Aib12, minor”.
